Results: the supplement of paper PMC11451515

Experiments:
Experiment in all cases: AUC of viability dose-response curve (% viability x log10 dose units); higher = less sensitive
Conditions in all cases: 48 h
NOMO1 = tested on: NOMO1
In short: (§1)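 Library compounds in DMSO were applied for 48 h at 37°C at 11 threefold doses (47 μM to 0.79 nM) to medium-adapted leukemia cells in 1536-well plates holding 500 or 1000 cells/well. Luminescence from CellTiter-Glo One was normalised plate by plate against DMSO and cell-free wells. Area under the curve came from trapezoidal integration of a log-logistic fit, after scaling curves that rose above full viability and discarding those that failed quality control. The fit had four parameters and used log10 doses.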

P12-Ichikawa = tested on: P12-Ichikawa
In short: as §1

SEM cells = tested on: SEM cells
In short: as §1

[1] = RPMI 5 mM glucose + 10% dialyzed FBS

| Compound | AUC of viability dose-response curve (NOMO1; HPLM + 10% dialyzed FBS) | AUC of viability dose-response curve (NOMO1; RPMI 5 mM glucose + 10% FBS) | AUC of viability dose-response curve (NOMO1; [1]) | AUC of viability dose-response curve (P12-Ichikawa; HPLM + 10% dialyzed FBS) | AUC of viability dose-response curve (P12-Ichikawa; RPMI 5 mM glucose + 10% FBS) | AUC of viability dose-response curve (P12-Ichikawa; [1]) | AUC of viability dose-response curve (SEM cells; HPLM + 10% dialyzed FBS) | AUC of viability dose-response curve (SEM cells; RPMI 5 mM glucose + 10% FBS) | AUC of viability dose-response curve (SEM cells; [1]) |
| --- | --- | --- | --- | --- | --- | --- | --- | --- | --- |
| COc1cc2c(cc1-c1c(C)noc1C)ncc1[nH]c(=O)n([C@H](C)c3ccccn3)c12 | 373 | 382 | 382 | 380 | 396 | 393 | 336 | 336 | 323 |
| CCC(C)SSc1ncc[nH]1 (stereo not given) | 416 | 426 | 432 | 441 | 418 | 393 | 377 | 361 | 323 |
| CCN(CC)CC#CCOC(=O)C(O)(c1ccccc1)C1CCCCC1 (stereo not given) | 468 | 473 | 465 | 460 | 475 | 472 | 458 | 476 | 471 |
| O=C(OC)[C@]12CC[C@@]3(C)[C@]4(C)CC[C@H]5[C@@](C)(C)C(=O)C(=C[C@]5(C)C4=CC(=O)[C@@H]3[C@@H]2C[C@](C)(C)CC1)C#N | 408 | 372 | 381 | 407 | 404 | 396 | 393 | 408 | 370 |
| CC/1=C/C(=O)N(O)/C(=C1)C2CCCCC2 | 441 | 445 | 446 | 435 | 415 | 430 | 430 | 419 | 427 |
| CC[C@H](CC#N)OC(=O)N[C@@H](C)c1cccc(NC(=O)Nc2ccc(-c3cnco3)c(OC)c2)c1 | 371 | 368 | 379 | 384 | 359 | 363 | 356 | 347 | 408 |
| COc1ccc(Cc2ccc(NC(N)=O)cc2)cc1-c1cccc(Cl)c1 | 472 | 471 | 476 | 467 | 465 | 464 | 458 | 465 | 469 |
| C/C=C(/C)C(=O)O[C@H]1C(C)=C2[C@H]([C@@H]1OC(=O)CCCCCCC)[C@@](C)(OC(C)=O)C[C@H](OC(=O)CCC)[C@@]1(O)[C@H]2OC(=O)[C@@]1(C)O | 206 | 224 | 211 | 364 | 297 | 257 | 211 | 183 | 174 |
| CC(N[C@H]1C[C@@H]1c1ccccc1)c1ccc2c(c1)OCCO2 (stereo not given in full) | 434 | 470 | 470 | 458 | 469 | 451 | 475 | 467 | 471 |
| COc1ccc(CC2NCCc3cc(OC)c(OC)cc32)cc1OC (stereo not given) | 451 | 427 | 407 | 459 | 416 | 420 | 397 | 390 | 403 |
| CN(C)CCOc1cc(-c2cn[nH]c2)ccc1NC(=O)C1COc2ccccc2O1 (stereo not given) | 460 | 442 | 447 | 449 | 455 | 459 | 439 | 453 | 453 |
| CN[S+](=O)([O-])Cc1ccc2[nH]cc(CCN(C)C)c2c1 | 454 | 443 | 454 | 467 | 457 | 460 | 442 | 431 | 456 |
| OC(=O)C1=CC=C(NC2=NC3=C(C\N=C(/C4=CC(=CC=C34)Cl)C5=C(F)C=CC=C5F)C=N2)C=C1 | 394 | 343 | 362 | 344 | 345 | 353 | 389 | 373 | 365 |
| OC1=CC=C(C=C1)\C2=C\OC3=C(C=CC(=C3)O)C2=O | 473 | 459 | 470 | 446 | 446 | 457 | 472 | 467 | 467 |
| CN1[C@@H]2CC(OC(=O)[C@@H](CO)c3ccccc3)C[C@H]1[C@H]1O[C@H]12 (stereo not given in full) | 452 | 417 | 451 | 474 | 469 | 435 | 445 | 443 | 442 |
| [NH2][Pt]1([NH2])[O]CC(=O)[O]1 | 462 | 429 | 432 | 467 | 463 | 439 | 455 | 464 | 407 |
| FC(F)(F)c1ccc(/C=C/c2nc(COc3ccc(CCCCn4ccnn4)cc3)co2)cc1 | 360 | 359 | 381 | 338 | 309 | 362 | 445 | 411 | 374 |
| CC(C)C(C)/C=C/C(C)C1CCC2C3=CC=C4CC(O)CCC4(C)C3CCC21C (stereo not given) | 474 | 426 | 445 | 460 | 468 | 457 | 383 | 454 | 458 |
| ClC1=C(N\C2=N\CCN2)C3=NSN=C3C=C1 | 434 | 440 | 428 | 461 | 465 | 455 | 419 | 427 | 432 |
| CC1(C)Cc2c(-c3ccccc3)c(-c3ccc(Cl)cc3)c(CC(=O)O)n2C1 | 454 | 454 | 458 | 444 | 451 | 466 | 451 | 425 | 407 |
